Test results reported in patent publication US20250163064A1, “QUINAZOLINE COMPOUNDS AND USES THEREOF AS INHIBITORS OF MUTANT KRAS PROTEINS” (AMGEN INC., priority 2022, published 2025).
pIC50: −log10 of the molar value. Read-outs that look alike come from different tables or passages of the source.

How the values were obtained:
[1] = tested on: Phosphorylation of ERK1/2 in AsPC-1 cells; assay: Phospho-ERK1/2 MSD Assay; format: cell-based; settings: for IC50: Homo sapiens, ASPC1, 2 h, read-out: 2 h p-ERK (AsPC-1 cells), IC50 (μM), AsPC-1 cells, 2 h compound treatment; for pIC50: read-out: 2 h p-ERK (AsPC-1 cells), IC50, AsPC-1 cells, 2 h compound treatment
Summary of the method: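 AsPC-1 cells in 10% FBS RPMI 1640 were treated with a compound dose titration for 2 h at 37° C, then lysed in RIPA buffer with protease and phosphatase inhibitors. Phospho-ERK1/2 was measured by MSD whole-cell lysate immunoassay, and IC50 was derived by 4-parameter logistic fit.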

[2] = molecular target: GDP-bound KRAS protein (aa 1-169), G12D and C118A; SOS-mediated nucleotide exchange (Homo sapiens (Human), UniProt P01116, C118A/G12D); assay: KRAS G12D Coupled Nucleotide Exchange Assay; format: biochemical; settings: 2 h compound pre-incubation, GTP, cRAF AlphaScreen
Sequence of GDP-bound KRAS protein (aa 1-169), G12D and C118A; SOS-mediated nucleotide exchange (P01116 other isoform, or with tags, fused parts or gaps G12D/C118A): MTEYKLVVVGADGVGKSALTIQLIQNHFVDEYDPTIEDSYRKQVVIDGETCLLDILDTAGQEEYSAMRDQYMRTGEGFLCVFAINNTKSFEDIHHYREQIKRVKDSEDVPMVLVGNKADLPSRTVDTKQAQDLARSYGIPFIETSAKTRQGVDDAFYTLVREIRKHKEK
Summary of the method: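 GDP-loaded KRAS (aa 1-169, G12D/C118A, N-His) preincubated 2 h with titrated compound in pH 7.4 HEPES/MgCl2/Triton buffer. SOS (aa 564-1049) plus GTP then added for 30 min. AlphaScreen readout; IC50 from 4-parameter logistic fit.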

[3] = molecular target: His-tagged KRAS G12D protein (Homo sapiens (Human), UniProt P01116, G12D); assay: KRAS G12D TR-FRET Assay; format: binding; settings: biotinylated KRPep-2d, 10 μM GDP
Sequence of His-tagged KRAS G12D protein (P01116-2 other isoform, or with tags, fused parts or gaps G12D): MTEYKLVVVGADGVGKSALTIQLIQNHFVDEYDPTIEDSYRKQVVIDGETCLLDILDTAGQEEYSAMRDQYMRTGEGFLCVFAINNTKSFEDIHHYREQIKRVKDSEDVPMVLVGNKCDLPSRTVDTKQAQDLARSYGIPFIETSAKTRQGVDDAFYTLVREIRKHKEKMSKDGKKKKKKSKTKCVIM
Summary of the method: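 His-KRAS G12D (20 nM working solution) preincubated with compound 30 min at rt in HEPES pH 7.4 buffer with 10 μM GDP, then biotinylated KRPep-2d added for 1 h. Eu-anti-His/streptavidin-d2 TR-FRET 665/615 ratio; IC50 from 4-parameter logistic fit.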

| Structure (SMILES) | IC50 [1] [µM] | pIC50 [2] | pIC50 [3] | pIC50 [1] | IC50 [2] [µM] |
| --- | --- | --- | --- | --- | --- |
| N#Cc1c(N)sc2c(F)ccc(-c3c(Cl)cc4c(N5CCCCC(F)C5)nc(OC[C@@]56CCCN5C[C@H](F)C6)nc4c3F)c12 (stereo partly drawn) [Example 27, 2-Amino-4-(6-chloro-8-fluoro-4-(3-fluoroazepan-1-yl)-2-(((2R,7aS)-2-fluorotetrahydro-1H-pyrrolizin-7a(5H)-yl)methoxy)quinazolin-7-yl)-7-fluorobenzo[b] thiophene-3-carbonitrile] | 0.043 | 8.70 | 8.70 | – | – |
| CC1(O)COCCN(c2nc(OC[C@@]34CCCN3C[C@H](F)C4)nc3c(F)c(-c4ccc(F)c5sc(N)c(C#N)c45)c(Cl)cc23)C1 (single isomer, unassigned) [Example 24] | – | – | 8.52 | 6.73 | 0.002 |
| N#Cc1c(N)sc2c(F)ccc(-c3c(Cl)cc4c(N5CCC[C@@H](O)C5)nc(OC[C@@]56CCCN5C[C@H](F)C6)nc4c3F)c12 [Example 35, 2-Amino-4-(6-chloro-8-fluoro-2-(((2R,7aS)-2-fluorotetrahydro-1H-pyrrolizin-7a(5H)-yl)methoxy)-4-((R)-3-hydroxypiperidin-1-yl)quinazolin-7-yl)-7-fluorobenzo[b] thiophene-3-carbonitrile] | 0.199 | 8.30 | 8.40 | – | – |
| CC1(O)COCCN(c2nc(OC[C@@]34CCCN3C[C@H](F)C4)nc3c(F)c(-c4ccc(F)c5sc(N)c(C#N)c45)c(O)cc23)C1 (stereo partly drawn) [Example 63, 2-Amino-7-fluoro-4-(8-fluoro-2-(((2R,7aS)-2-fluorotetrahydro-1H-pyrrolizin-7a (H)-yl)methoxy)-6-hydroxy-4-(6-hydroxy-6-methyl-1,4-oxazepan-4-yl)quinazolin-7-yl)benzo[b]thiophene-3-carbonitrile] | – | 8.52 | 8.40 | < 5.00 | – |
| N#Cc1c(N)sc2c(F)ccc(-c3c(Cl)cc4c(N5CCCC[C@H](O)C5)nc(OC[C@@]56CCCN5C[C@H](F)C6)nc4c3F)c12 [Example 5, 2-Amino-4-(6-chloro-8-fluoro-2-(((2R,7a.S)-2-fluorotetrahydro-1H-pyrrolizin-7a(5H)-yl)methoxy)-4-((S)-3-hydroxyazepan-1-yl)quinazolin-7-yl)-7-fluorobenzo[b] thiophene-3-carbonitrile] | 0.097 | 8.40 | 8.52 | – | – |
| N#Cc1c(N)sc2c(F)ccc(-c3c(Cl)cc4c(N5CCCC6(COC6)C5)nc(OC[C@@]56CCCN5C[C@H](F)C6)nc4c3F)c12 [Example 42, 2-Amino-4-(6-chloro-8-fluoro-2-(((2R,7aS)-2-fluorotetrahydro-1H-pyrrolizin-7a(5H)-yl)methoxy)-4-(2-oxa-6-azaspiro[3.5]nonan-6-yl)quinazolin-7-yl)-7-fluorobenzo[b] thiophene-3-carbonitrile] | 0.402 | 8.00 | 8.10 | – | – |
| CC1(O)COCCN(c2nc(OCC34CCCN3CC(F)(F)C4)nc3c(F)c(-c4ccc(F)c5sc(N)c(C#N)c45)c(Cl)cc23)C1 (single isomer, unassigned) [Example 60, 2-Amino-4-(6-chloro-2-((2,2-difluorotetrahydro-1H-pyrrolizin-7a(5H)-yl)methoxy)-8-fluoro-4-(6-hydroxy-6-methyl-1,4-oxazepan-4-yl)quinazolin-7-yl)-7-fluorobenzo[b] thiophene-3-carbonitrile] | 0.292 | – | 8.10 | – | 0.007 |
| N#Cc1c(N)sc2c(F)ccc(-c3c(Cl)cc4c(N5CCCS(=O)(=O)CC5)nc(OC[C@@]56CCCN5C[C@H](F)C6)nc4c3F)c12 [Example 25, 2-Amino-4-(6-chloro-4-(1,1-dioxido-1,4-thiazepan-4-yl)-8-fluoro-2-(((2R,7aS)-2-fluorotetrahydro-1H-pyrrolizin-7a(5H)-yl)methoxy)quinazolin-7-yl)-7-fluorobenzo[b] thiophene-3-carbonitrile] | 0.492 | 8.52 | 8.52 | – | – |
| N#Cc1c(N)sc2c(F)ccc(-c3c(Cl)cc4c(N5CCCC6(CCO6)C5)nc(OC[C@@]56CCCN5C[C@H](F)C6)nc4c3F)c12 (stereo partly drawn) [Example 20, 2-Amino-4-(6-chloro-8-fluoro-2-(((2R,7aS)-2-fluorotetrahydro-1H-pyrrolizin-7a(5H)-yl)methoxy)-4-(1-oxa-6-azaspiro[3.5]nonan-6-yl)quinazolin-7-yl)-7-fluorobenzo[b] thiophene-3-carbonitrile] | 1.02 | 7.59 | 7.66 | – | – |
| C[C@@]1(CO)CCCN(c2nc(OC[C@@]34CCCN3C[C@H](F)C4)nc3c(F)c(-c4ccc(F)c5sc(N)c(C#N)c45)c(Cl)cc23)C1 [Example 43, 2-Amino-4-(6-chloro-8-fluoro-2-(((2R,7aS)-2-fluorotetrahydro-1H-pyrrolizin-7a(5H)-yl)methoxy)-4-((R)-3-(hydroxymethyl)-3-methylpiperidin-1-yl)quinazolin-7-yl)-7-fluorobenzo[b] thiophene-3-carbonitrile] | 1.16 | 7.74 | 7.82 | – | – |
| CCC1(O)COCCN(c2nc(OC[C@@]34CCCN3C[C@H](F)C4)nc3c(F)c(-c4ccc(F)c5sc(N)c(C#N)c45)c(Cl)cc23)C1 (single isomer, unassigned) [Example 45] | – | – | 8.22 | 6.73 | 0.005 |
| N#Cc1c(N)sc2c(F)ccc(-c3c(Cl)cc4c(N5CCCOCC5)nc(OC[C@@]56CCCN5C[C@H](F)C6)nc4c3F)c12 [Example 55, 2-Amino-4-(6-chloro-8-fluoro-2-(((2R,7aS)-2-fluorotetrahydro-1H-pyrrolizin-7a(5H)-yl)methoxy)-4-(1,4-oxazepan-4-yl)quinazolin-7-yl)-7-fluorobenzo[b]thiophene-3-carbonitrile] | 0.102 | 8.10 | 8.30 | – | – |
| CC1(C(N)=O)CCCN(c2nc(OC[C@@]34CCCN3C[C@H](F)C4)nc3c(F)c(-c4ccc(F)c5sc(N)c(C#N)c45)c(Cl)cc23)C1 (stereo partly drawn) [Example 11, 1-(7-(2-Amino-3-cyano-7-fluorobenzo[b]thiophen-4-yl)-6-chloro-8-fluoro-2-(((2R,7aS)-2-fluorotetrahydro-1H-pyrrolizin1 7a(5H)-yl)methoxy)quinazolin-4-yl)-3-methylpiperidine-3-carboxamide] | 0.677 | 8.15 | 8.15 | – | – |
| N#Cc1c(N)sc2c(F)ccc(-c3c(Cl)cc4c(N5CCCCCCC5)nc(OC[C@@]56CCCN5C[C@H](F)C6)nc4c3F)c12 [Example 31, 2-Amino-4-(4-(azocan-1-yl)-6-chloro-8-fluoro-2-(((2R,7aS)-2-fluorotetrahydro-1H-pyrrolizin-7a(5H)-yl)methoxy)quinazolin-7-yl)-7-fluorobenzo[b] thiophene-3-carbonitrile] | 0.187 | 9.00 | 9.00 | – | – |
| N#Cc1c(N)sc2c(F)ccc(-c3c(Cl)cc4c(N5CCC6CCC(C5)O6)nc(OC[C@@]56CCCN5C[C@H](F)C6)nc4c3F)c12 (stereo partly drawn) [Example 21] | 0.532 | 8.10 | 8.00 | – | – |
| N#Cc1c(N)sc2c(F)ccc(-c3c(Cl)cc4c(N5CCC[C@H]5C#N)nc(OC[C@@]56CCCN5C[C@H](F)C6)nc4c3F)c12 [Example 53, (2S)-1-(7-(2-Amino-3-cyano-7-fluorobenzo[b]thiophen-4-yl)-6-chloro-8-fluoro-2-(((2R,7aS)-2-fluorotetrahydro-1H-pyrrolizin-7a(5H)-yl)methoxy)quinazolin-4-yl)pyrrolidine-2-carbonitrile] | 0.119 | 9.00 | 9.00 | – | – |
| N#Cc1c(N)sc2c(F)ccc(-c3c(Cl)cc4c(C5=CCCOC5)nc(OC[C@@]56CCCN5C[C@H](F)C6)nc4c3F)c12 [Example 70, 2-Amino-4-(6-chloro-4-(5,6-dihydro-2H-pyran-3-yl)-8-fluoro-2-(((2R,7aS)-2-fluorotetrahydro-1H-pyrrolizin-7a(5H)-yl)methoxy)quinazolin-7-yl)-7-fluorobenzo[b]thiophene-3-carbonitrile bis(2,2,2-trifluoroacetate)] | 0.845 | 7.72 | 7.47 | – | – |
| N#Cc1c(N)sc2c(F)ccc(-c3c(Cl)cc4c(N5CCCC6(CC(=O)C6)C5)nc(OC[C@@]56CCCN5C[C@H](F)C6)nc4c3F)c12 [Example 40, 2-Amino-4-(6-chloro-8-fluoro-2-(((2R,7aS)-2-fluorotetrahydro-1H-pyrrolizin-7a(5H)-yl)methoxy)-4-(2-oxo-6-azaspiro[3.5]nonan-6-yl)quinazolin-7-yl)-7-fluorobenzo[b] thiophene-3-carbonitrile] | 1.68 | 7.59 | 7.72 | – | – |
| CC1(O)COCCN(c2nc(OC[C@@]34CCCN3C[C@H](F)C4)nc3c(F)c(-c4ccc(F)c5sc(N)c(C#N)c45)c(Cl)cc23)C1 (single isomer, unassigned) [Example 22] | – | – | 8.70 | 7.89 | 0.002 |
